Test [1] deals with Geranylgeranyl pyrophosphate synthase (GGPPS) (Taxus canadensis, UniProt Q9ZPM3). Kind of test: GGPPS activity by pyrophosphate formation (EnzChek pyrophosphate assay). It counts as biochemical. To be noted: reaction IPP + FPP; IPP varied with FPP held at 100 μM. On the procedure:
A single colony from each strain containing one plasmid for the expression of a single enzyme was inoculated into 5 mL of sterile LB media (BD Sciences) with kanamycin and grown overnight at 37° C. One milliliter was then inoculated into a 1 L flask containing 200 mL of sterile SOB media (AMERSCO) with kanamycin. The culture was grown at 30° C. until an optical density (OD) of 0.4-0.6 (λ=600 nm). At this point protein production was induced by the addition of IPTG for a final concentration of 0.1 mM and continued at 30° C. for 3 h. Cells were harvested by centrifugation at 3750 rpm in an Allegra X12R centrifuge (Beckman-Coulter). […] Enzymes were then exchanged into 50 mM Tris-HCl pH 7.5 using 10 kDa Microseps (Millipore) by centrifugation and repeated buffer exchanges until the imidazole was calculated to be under 1 mM. […] Enzyme concentration was determined using a bicinchoninic acid (BCA) assay kit from Pierce using bovine serum albumin as a standard (BSA). […] The kinetics for CK were previously determined as described. The kinetics for IPK were determined by ATP consumption using a pyruvate kinase (PK) lactate dehydrogenase (LDH) coupled assay (FIGS. 16A & 16B). […] NADH was made fresh each time and the appropriate concentration was determined by constructing a standard curve using a SpectraMax M3 and selecting the highest value in the linear range. […]

The test system of test [2] is Geranylgeranyl pyrophosphate synthase (GGPPS). The conditions noted are these: reported elsewhere (Hefner et al., 1998); cited from earlier work.
In test [3] the target is Farnesyl pyrophosphate synthase (IspA) (Escherichia coli, UniProt P22939). The conditions noted are these: Ref Ku et al., 2005, Weaver et al., 2015, cited from earlier work.
A further test addresses T1, IPK (Arabidopsis thaliana, UniProt Q8H1F7).
T1 construct: Arabidopsis thaliana (AAN12957.1), codon optimized; made in house; host or cells: E. coli BL21 (DE3)
T1 sequence (Q8H1F7 1-332): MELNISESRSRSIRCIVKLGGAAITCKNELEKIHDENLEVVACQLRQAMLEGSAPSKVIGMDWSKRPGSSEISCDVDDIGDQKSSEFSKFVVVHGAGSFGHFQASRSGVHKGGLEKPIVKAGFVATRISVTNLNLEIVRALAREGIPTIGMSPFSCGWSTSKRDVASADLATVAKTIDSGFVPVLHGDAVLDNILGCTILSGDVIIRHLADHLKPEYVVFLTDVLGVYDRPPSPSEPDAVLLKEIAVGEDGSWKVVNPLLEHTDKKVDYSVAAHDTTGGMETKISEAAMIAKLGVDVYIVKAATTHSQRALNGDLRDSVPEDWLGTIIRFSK
Put plainly: Metabolic control analysis (lin-log elasticities) of multi-enzyme perturbation study. The conditions noted are these: lin-log kinetics, 60 min, 5 mM isoprenol, 10 mM ATP. It counts as biochemical.

Another test concerns the target T2, CK (Saccharomyces cerevisiae, UniProt P20485).
T2 construct: S. cerevisiae (AAA34499.1), codon optimized; made in house; host or cells: E. coli BL21 (DE3)
T2 sequence (P20485 1-582): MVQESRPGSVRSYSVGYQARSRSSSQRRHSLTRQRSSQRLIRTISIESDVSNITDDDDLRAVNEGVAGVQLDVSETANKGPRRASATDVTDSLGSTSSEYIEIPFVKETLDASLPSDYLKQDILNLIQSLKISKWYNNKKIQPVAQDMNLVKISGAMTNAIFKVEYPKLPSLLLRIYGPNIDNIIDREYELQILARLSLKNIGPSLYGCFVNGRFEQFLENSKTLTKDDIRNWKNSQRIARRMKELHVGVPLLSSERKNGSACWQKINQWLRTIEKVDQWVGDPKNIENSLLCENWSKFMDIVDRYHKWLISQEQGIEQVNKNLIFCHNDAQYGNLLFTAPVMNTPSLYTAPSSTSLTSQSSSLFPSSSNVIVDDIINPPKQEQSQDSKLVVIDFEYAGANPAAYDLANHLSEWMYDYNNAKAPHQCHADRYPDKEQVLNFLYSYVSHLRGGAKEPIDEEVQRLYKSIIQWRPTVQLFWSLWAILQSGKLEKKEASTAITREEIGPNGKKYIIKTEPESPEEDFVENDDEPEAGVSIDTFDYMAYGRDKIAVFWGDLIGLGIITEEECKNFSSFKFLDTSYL
The test is described as above. Format: biochemical. The conditions noted are these: lin-log kinetics, 60 min, 5 mM isoprenol, 10 mM ATP.

Test [4] addresses T3, isopentenyl phosphate kinase (IPK) (Arabidopsis thaliana, UniProt Q8H1F7).
T3 construct: Arabidopsis thaliana (AAN12957.1), codon optimized; made in house; host or cells: E. coli BL21 (DE3)
T3 sequence (Q8H1F7 1-332): T1 sequence (Q8H1F7 1-332)
Kind of test: IPK kinetics by ATP consumption, PK-LDH coupled NADH assay. It counts as biochemical. To be noted: 10 mM ATP, 30° C., pH 7.4. On the procedure: A single colony from each strain containing one plasmid for the expression of a single enzyme was inoculated into 5 mL of sterile LB media (BD Sciences) with kanamycin and grown overnight at 37° C. One milliliter was then inoculated into a 1 L flask containing 200 mL of sterile SOB media (AMERSCO) with kanamycin. The culture was grown at 30° C. until an optical density (OD) of 0.4-0.6 (λ=600 nm). At this point protein production was induced by the addition of IPTG for a final concentration of 0.1 mM and continued at 30° C. for 3 h. Cells were harvested by centrifugation at 3750 rpm in an Allegra X12R centrifuge (Beckman-Coulter). The supernatant was removed and the cell pellets were frozen at −20° C. until purification. Proteins were visualized by SDS-PAGE performed accordingly to the manufacturer's guidelines (Bio-rad). Gradient (4-20%) gels were purchased from Biorad, as were the Kaleidoscope pre-stained protein ladder, Laemmli 4× sample buffer, Tris-glycine-SDS buffer, and mini-protean electrophoresis chambers. Gels were stained using Instant-Blue (Expedeon). Protein concentrations were very roughly estimated from the gel using Image J (NIH) in order to determine an appropriate amount of resin for purification. Protein Purification All purification steps were performed in a single day on ice and in a cold room when possible. Cell pellets were thawed and resuspended in 30 mL of NPI-10 buffer (50 mM NaH2PO4, 300 mM NaCl, 10 mM imidazole, pH 8.0) and supplemented with 0.5 mM PMSF immediately prior to cell lysis. Cells were lysed by 2-3 passages through an EmulsiFlex-C5 high-pressure homogenizer (Avestin). Lysates were then centrifuged at 4 C for 15 min to remove cellular debris. The clarified lysate was loaded onto a Ni-NTA resin (Gold Bio, capacity 50 mg/mL) which was housed in a gravity column (Thermofisher) and was pre-equilibrated with 10 column volumes (CV) of NPI-10 buffer. The column was then washed with 10 CV of NPI-20 buffer (20 mM imidazole). The enzyme was then eluted from the column by 3 CV using NPI-250 buffer (250 mM imidazole). Enzymes were then exchanged into 50 mM Tris-HCl pH 7.5 using 10 kDa Microseps (Millipore) by centrifugation and repeated buffer exchanges until the imidazole was calculated to be under 1 mM. […] Enzyme concentration was determined using a bicinchoninic acid (BCA) assay kit from Pierce using bovine serum albumin as a standard (BSA). […] The kinetics for CK were previously determined as described. The kinetics for IPK were determined by ATP consumption using a pyruvate kinase (PK) lactate dehydrogenase (LDH) coupled assay (FIGS. 16A & 16B). […] NADH was made fresh each time and the appropriate concentration was determined by constructing a standard curve using a SpectraMax M3 and selecting the highest value in the linear range. […]

In a further test the target is T4, Taxadiene Synthase (TDS) (Taxus brevifolia, UniProt Q41594).
T4 construct: truncated first 60 amino acids, methionine added; made in house; host or cells: E. coli BL21 (DE3)
T4 sequence (Q41594 61-862 limits assumed): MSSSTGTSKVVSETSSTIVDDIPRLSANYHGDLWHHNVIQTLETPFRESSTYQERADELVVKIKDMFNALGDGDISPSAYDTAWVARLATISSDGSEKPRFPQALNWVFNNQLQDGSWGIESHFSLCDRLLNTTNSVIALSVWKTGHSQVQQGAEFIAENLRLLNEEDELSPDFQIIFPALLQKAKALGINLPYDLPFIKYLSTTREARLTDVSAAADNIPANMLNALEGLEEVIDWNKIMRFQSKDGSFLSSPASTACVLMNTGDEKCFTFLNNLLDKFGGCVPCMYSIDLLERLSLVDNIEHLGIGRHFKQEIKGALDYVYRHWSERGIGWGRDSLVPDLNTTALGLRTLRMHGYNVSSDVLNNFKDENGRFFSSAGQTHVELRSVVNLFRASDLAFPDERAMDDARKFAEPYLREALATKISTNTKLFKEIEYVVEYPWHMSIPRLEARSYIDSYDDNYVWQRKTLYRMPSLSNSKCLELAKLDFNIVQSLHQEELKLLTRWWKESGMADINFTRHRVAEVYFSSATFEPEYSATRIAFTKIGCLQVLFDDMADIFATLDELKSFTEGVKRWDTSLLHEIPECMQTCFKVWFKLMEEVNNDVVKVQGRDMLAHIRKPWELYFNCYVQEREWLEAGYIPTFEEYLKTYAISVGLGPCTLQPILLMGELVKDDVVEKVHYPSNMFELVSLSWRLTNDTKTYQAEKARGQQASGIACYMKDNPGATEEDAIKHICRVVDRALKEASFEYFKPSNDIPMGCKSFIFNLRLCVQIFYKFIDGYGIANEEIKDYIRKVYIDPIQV
Kind of test: TDS activity by pyrophosphate assay. It counts as biochemical. To be noted: 30° C., pH 7.4.

Where two headings read alike, the source gives them in different places.

As a reminder, the Km is the substrate concentration at which the rate is half of its maximum.

Farnesyl pyrophosphate synthase (IspA), sequence (P22939 whole entry): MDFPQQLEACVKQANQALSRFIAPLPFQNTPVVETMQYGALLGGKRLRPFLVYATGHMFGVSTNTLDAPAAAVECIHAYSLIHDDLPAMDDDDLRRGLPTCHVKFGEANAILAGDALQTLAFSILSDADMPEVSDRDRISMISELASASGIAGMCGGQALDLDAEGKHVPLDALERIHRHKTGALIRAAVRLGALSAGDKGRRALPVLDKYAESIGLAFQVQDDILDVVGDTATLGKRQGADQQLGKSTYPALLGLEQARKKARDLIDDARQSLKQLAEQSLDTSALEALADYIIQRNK
Geranylgeranyl pyrophosphate synthase (GGPPS) (Taxus canadensis, UniProt Q9ZPM3), sequence (Q9ZPM3 entry or part of it): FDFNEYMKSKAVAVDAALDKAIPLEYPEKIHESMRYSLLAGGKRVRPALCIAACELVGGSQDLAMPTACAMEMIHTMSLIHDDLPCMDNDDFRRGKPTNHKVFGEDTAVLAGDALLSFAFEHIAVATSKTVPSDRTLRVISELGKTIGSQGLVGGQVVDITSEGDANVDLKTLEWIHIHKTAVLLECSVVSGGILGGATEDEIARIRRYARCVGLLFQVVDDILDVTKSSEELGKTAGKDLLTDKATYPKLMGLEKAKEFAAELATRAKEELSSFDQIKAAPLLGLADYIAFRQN
Method for CK: In order to identify a PSS, an in vitro reaction was run, using the optimal enzyme concentrations, as predicted from the initial perturbation study, using a “main interactions only” linear regression model. A time profile of metabolic intermediate concentrations was constructed (FIG. 32). […] The reaction was stopped at 60 min in the repeat experiment.
[formula] where i represents the unit vector, v represents the relative flux compared to the reference state flux J^0, E^x0 represents the elasticity matrix for the metabolic intermediate concentrations (x^0) in relation to the enzyme concentration compared to the reference state as designed by e/e^0 and the relative intermediate metabolic concentrations compared to the reference state (x/x^0).
By applying this model to the data generated in the large perturbation study and alternating the designated reference state, 25 sets of elasticities were generated, using the maximum connectivity assumption to calculate the elasticity of every enzyme for each measured metabolite.

For `C=C(C)CCO[P@@](=O)(O)OP(=O)(O)O` [IPP, isopentenyl pyrophosphate], the Km in test [1] is 13.5 µM; in test [2] it was 6 µM; in test [3] (reaction IPP + DMAPP), 29.3 µM; in test [3] (reaction IPP + GPP), 5.5 µM.

For `C=C(C)CCOP(=O)(O)O` [IP, isopentenyl monophosphate], the “effect on IPK activity (elasticity)” value at IPK is on record as “stimulatory”. Also, the “effect on CK activity (elasticity)” value at CK is recorded as “slightly inhibitory”. Besides, in test [4], the Km worked out at 21.7 µM and the kcat is on record as 45.5 S^−1.

`CC(C)=CCC/C(C)=C/CC/C(C)=C/CC/C(C)=C/COP(=O)(O)OP(=O)(O)O` [GGPP, geranylgeranyl diphosphate]: at Taxadiene Synthase (TDS), the Km is 43 µM and the kcat is listed as 23.1 S^−1.

These data come from patent US11034980B2, “Microbial engineering for the production of isoprenoids” (Massachusetts Institute of Technology, priority 2018, dated 2021).
